{"source": "ChEMBL document CHEMBL5576140", "about": "“Computational Design of Pore-Forming Peptides with Potent Antimicrobial and Anticancer Activities” (J Med Chem, 2024)", "system": "SW-620", "assay": "Anti-cancer activity against human SW620 cells incubated for 72 hrs by Cell Titer Glo assay", "type": "functional, cell-based", "conditions": "SW-620, 72 h"}
{"substance": "H-KKKKLKKILKKLFQFINQLDNQLQDIKQNK-NH2", "values": [{"measurement": "IC50", "result": 1000, "unit": "nM"}]}
